# Source: BindingDB's records for patent US11365204 (Union therapeutics A/S, 2022)
# Biological target: Tumor necrosis factor (Homo sapiens, UniProt P01375)
# Test: TNF-alpha RELEASE
# Protocol: Human peripheral blood mononuclear cells (PBMC) were isolated from fresh buffy coats by density centrifugation using lymphoprep tubes (Medinor). Frozen PBMC's were washed in serum free assay buffer (RPMI1640 with 25 mM HEPES, 1% pen/strep, […], 0.5% human serum albumin) and living cells counted. Lipopolysaccharide (1 microg/ml; SIGMA) was added to the cells which were then transferred to 384 well tissue culture plates (5×105 c/ml) containing titrated test compounds. The cells were incubated for 18 hours at 37° C. in serum free assay buffer and the level of TNFalpha in the supernatant was quantitated by AlphaLISA (PerkinElmer) by measuring fluorescence intensity at 615 nm.Results were expressed as IC50 values calculated from inhibition curves using as controls the secretion in LPS stimulated wells and the secretion in cells incubated with 10 microM of a PDE4 inhibitor reference compound.
# Sequence of Tumor necrosis factor (P01375 whole entry): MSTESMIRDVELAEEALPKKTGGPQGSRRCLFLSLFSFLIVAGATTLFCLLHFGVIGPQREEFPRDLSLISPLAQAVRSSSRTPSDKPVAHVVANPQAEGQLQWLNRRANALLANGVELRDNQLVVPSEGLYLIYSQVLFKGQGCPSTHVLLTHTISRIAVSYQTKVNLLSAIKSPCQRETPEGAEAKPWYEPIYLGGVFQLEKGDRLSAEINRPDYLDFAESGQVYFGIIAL
row,Compound,IC50
1,"CC(=O)N1CC[C@H](Nc2nc(N3CC(OC(=O)c4cnsc4)C3)nc3c2[S@+]([O-])CC3)C1 [US11365204, Example 72]",< 100 nM
2,"CC(=O)N1CC[C@H](Nc2nc(N3CC(OC(=O)c4cscn4)C3)nc3c2[S@+]([O-])CC3)C1 [US11365204, Example 73]",300 nM
3,"CC(=O)N1CC[C@H](Nc2nc(N3CC(OC(=O)C4CCOCC4)C3)nc3c2[S@+]([O-])CC3)C1 [US11365204, Example 74]",300 nM
4,"CC(=O)N1CCC(Nc2nc(N3CC(OC(=O)c4cscn4)C3)nc3c2[S+]([O-])CC3)CC1 (centres undefined) [US11365204, Example 76]",> 500 nM
